Experimental data published in patent US20090105119A1, “ASPARAGINE-10-SUBSTITUTED NONADEPSIPEPTIDES” (priority 2006, published 2009).
In brackets after ≈: the same amount, converted by molar mass. Like-named read-outs stand apart in the source and are kept apart here. *1 amine or outer side, *2 acyl side, *3 side chain or, on linkers, in order; H or OH if unused. Where a SMILES comes first, the peptide text is derived from it. Bridges are numbered along the chain shown (N, C = ends). [ ]: non-standard residue; d: D form. Phe(3R-OH) = O=C([C@@H](N[*:1])[C@H](O[*:3])c1ccccc1)[*:2]; X7 = O=C(NCc1ccccc1)[C@@H](O)[C@H](N[*:1])C(=O)[*:2]; X2 = O=C(NCCO)[C@@H](O)[C@H](N[*:1])C(=O)[*:2]; X1 = CNC(=O)[C@@H](O)[C@H](N[*:1])C(=O)[*:2]; Leu(3R-OH) = CC(C)[C@@H](O)[C@H](N)C(=O)O; aThr = C[C@H](O)[C@H](N)C(=O)O

Key:
[1] = system: Staphylococcus aureus 133; type: cell-based; conditions: Isosensitest medium, 10^5 microbes per ml, 37° C., 18-24 hours
Description: (§1) Determination of the Minimum Inhibitory Concentration (MIC):
(§2) The MIC is determined in the liquid dilution test in accordance with the NCCLS guidelines. Overnight cultures of Staphylococcus aureus 133, Enterococcus faecalis 27159, E. faecium 4147 and Streptococcus pneumoniae G9a are incubated with the described test substances in a 1:2 dilution series. The MIC determination is carried out with a cell count of 10^5 microbes per ml in Isosensitest medium (Difco, Irvine/USA), with the exception of S. pneumoniae which is tested in BHI broth (Difco, Irvine/USA) with 10% bovine serum with a cell count of 10^6 microbes per ml. The cultures are incubated at 37° C. for 18-24 hours, S. pneumoniae in the presence of 10% CO2.
(§3) The MIC is defined as the lowest concentration of each substance at which no visible bacterial growth occurs any longer. The MIC values are reported in μg/ml.

[2] = system: Streptococcus pneumoniae G9a; type: cell-based; conditions: BHI broth with 10% bovine serum, 10^6 microbes per ml, 10% CO2, 37° C., 18-24 hours
Description: as §1, §2, §3

E. faecalis ICB 27159 = type: cell-based, Enterococcus faecalis; conditions: Isosensitest medium, 10^5 microbes per ml, 37° C., 18-24 hours
Description: as §1, §2, §3

[3] = Determination of the free fraction (fu) in plasma; type: in vitro ADME, rat; conditions: pH 7.4
Description: (§4) Principle of the Determination of the Free Fraction Via Transil:
(§5) The method described here for determining the free fraction (fu) of a test substance is divided into 2 parts:
(§6) a) Determination of the Transil®/buffer distribution ratio (MAbuffer) by incubating the test substance in a Transil®-buffer (pH 7.4) dispersion and subsequently determining the concentration in the dispersion and in the buffer supernatant.
(§7) b) Determination of the Transil®/plasma distribution ratio (MAplasma) by incubating the test substance in a Transil®-plasma dispersion and subsequently determining the concentration in the dispersion and in the plasma.
(§8) The quotient of the two distribution ratios yields fu.
(§9) In the case of highly protein-bound substances, the plasma is usually diluted with isotonic phosphate buffer (pH 7.4) and then suspended with Transil®. The determination of fu′ (free fraction in diluted plasma) in this diluted protein solution takes place in analogy to the determination of fu. The free fraction in undiluted plasma is calculated from fu′ and the dilution factor.
(§10) Concerning this method, compare also: Schuhmacher, Joachim; Kohlsdorfer, Christian; Buehner, Klaus; Brandenburger, Tim; Kruk, Renate, “High-throughput determination of the free fraction of drugs strongly bound to plasma proteins.” Journal of Pharmaceutical Sciences 2004, 93, 816-830.
(§11) Determination of the Membrane Affinity of a Test Substance after Distribution Between Transil® and Buffer (MAbuffer):
(§12) All incubations are carried out in suitable glass vessels, e.g. glass vials, ground-socket test tubes. In general the total volume is 0.5-5 ml, and the Transil® volume 10-100 μl. In cases where the membrane affinities are expected to be high, the Transil® dispersion can be diluted up to 20-fold with phosphate buffer of pH 7.4, e.g. Dulbecco's PBS. Phosphate buffer of pH 7.4 is provided in the incubation vessels, and the Transil® is pipetted in, after thorough mixing. The test substance is pipetted in at a concentration of, for example, 200 ng/mL, n=6. The proportion of organic solvent should be <2%. The mixtures are incubated at room temperature for 30 min, e.g. on a mini-shaker at an angle of about 45°, at about 400 rpm. In order to determine the 100% value at least one aliquot of, for example, 100 μl, is removed and the remaining mixture is centrifuged at about 1800 g for about 10 min. At least 2 aliquots (e.g. 100 μl) of the supernatant are removed from each sample for the determination of the concentration.
(§13) Determination of MAplasma in Undiluted or Diluted Plasma:
(§14) The total incubation volume and the added volume of Transil® depend on the expected free fraction. In general the total volume is 0.5-1 ml, and the Transil® volume is 10-100 μl. In cases where the free fractions are very low, the plasma of the species to be investigated is diluted, with isotonic buffer solution, pH 7.4, e.g. 10-400-fold, and the Transil® is then added. The subsequent procedure takes place as described above for the determination of the MAbuffer values. […]
(§15) The plasma of the species to be investigated is filtered through a semipermeable membrane. The substance concentration in the filtrate is measured and the free fraction fu is calculated therefrom. […] The substance concentration in the ultrafiltrate (Cu; unbound substance concentration) and in the plasma before centrifugation (C; total substance concentration) is measured. The free fraction is calculated by the formula: fu (%)=Cu/C*100.

[4] = Determination of the free fraction (fu) in plasma; type: in vitro ADME; conditions: human
Description: as §4, §5, §6, §7, §8, §9, §10, §11, §12, §13, §14, §15

[5] = rat plasma, read-out: Free fraction (rat plasma)
[6] = read-out: Free fraction (human plasma)

Compound | MIC S. aureus 133 [1] [µg/mL] | MIC S. pneumoniae G9a [2] [µg/mL] | MIC E. faecalis ICB 27159 (E. faecalis ICB 27159) [µg/mL] | fraction unbound at 30 min, 200 ng/mL [3, 5] | fraction unbound at 30 min [4, 6] | fraction unbound at 30 min, 200 ng/mL ([3]; rat, plasma) | fraction unbound at 30 min [4]
CC[C@H](C)[C@@H]1NC(=O)[C@@H](CCCNC(=N)N)NC(=O)[C@H](CC(C)C)NC(=O)[C@H]([C@H](O)C(C)C)NC(=O)[C@@H](NC(=O)[C@H](CC(C)C)NC(=O)[C@H](N)CC(C)C)[C@@H](c2ccccc2)OC(=O)[C@H](CO)NC(=O)[C@H]([C@H](O)C(=O)NCCO)NC(=O)CNC(=O)[C@H]([C@H](C)O)NC1=O [Example 2, N^4.10-(2-Hydroxyethyl)-D-leucyl-L-leucyl-[(3R)-3-hydroxy-L-phenylalanyl]-[(3R)-3-hydroxy-L-leucyl]-L-leucyl-D-arginyl-L-isoleucyl-L-allothreonylglycyl-[(3S)-3-hydroxy-L-asparaginyl]-L-serine C^1.11—O^3.3-lactone Bistrifluoroacetate] (H-[dL]L[Phe(3R-OH)][Leu(3R-OH)]L[dR]I[aThr]G[X2]S; ester 3-C) | 1 (≈ 0.757 µM) | 2 (≈ 1.51 µM) | 16 (≈ 12.1 µM) | 0.137 | 0.099 | – | –
CC[C@H](C)[C@@H]1NC(=O)[C@@H](CCCNC(=N)N)NC(=O)[C@H](CC(C)C)NC(=O)[C@H]([C@H](O)C(C)C)NC(=O)[C@@H](NC(=O)[C@H](CC(C)C)NC(=O)[C@H](N)CC(C)C)[C@@H](c2ccccc2)OC(=O)[C@H](CO)NC(=O)[C@H]([C@H](O)C(=O)NC)NC(=O)CNC(=O)[C@H]([C@H](C)O)NC1=O [Example 3, N^4.10-Methyl-D-leucyl-L-leucyl-[(3R)-3-hydroxy-L-phenylalanyl]-[(3R)-3-hydroxy-L-leucyl]-L-leucyl-D-arginyl-L-isoleucyl-L-allothreonylglycyl-[(3S)-3-hydroxy-L-asparaginyl]-L-serine C^1.11—O^3.3-lactone Bistrifluoroacetate] (H-[dL]L[Phe(3R-OH)][Leu(3R-OH)]L[dR]I[aThr]G[X1]S; ester 3-C) | 0.25 (≈ 0.194 µM) | 0.5 (≈ 0.387 µM) | 2 (≈ 1.55 µM) | 0.129 | 0.051 | – | –
CC[C@H](C)[C@@H]1NC(=O)[C@@H](CCCNC(=N)N)NC(=O)[C@H](CC(C)C)NC(=O)[C@H]([C@H](O)C(C)C)NC(=O)[C@@H](NC(=O)[C@H](CC(C)C)NC(=O)[C@H](N)CC(C)C)[C@@H](c2ccccc2)OC(=O)[C@H](CO)NC(=O)[C@H]([C@H](O)C(=O)NCc2ccccc2)NC(=O)CNC(=O)[C@H]([C@H](C)O)NC1=O [Example 6, N^4.10-Benzyl-D-leucyl-L-leucyl-[(3R)-3-hydroxy-L-phenylalanyl]-[(3R)-3-hydroxy-L-leucyl]-L-leucyl-D-arginyl-L-isoleucyl-L-allothreonylglycyl-[(3S)-3-hydroxy-L-asparaginyl]-L-serine C^1.11—O^3.3-lactone Bistrifluoroacetate] (H-[dL]L[Phe(3R-OH)][Leu(3R-OH)]L[dR]I[aThr]G[X7]S; ester 3-C) | – | – | – | – | – | 0.07 | 0.026
